Assay results taken from patent US6914045B2, “Glycopeptide antibiotics” (Wyeth Holdings Corporation, priority 2001, dated 2005).
≈ marks a conversion by molar mass, not a printed value.

Columns and labels:
Test in all cases: in vitro antibacterial evaluation, MIC by broth dilution
Assay type in all cases: cell-based
[1] = test system: Escherichia coli; conditions: 18 hours at 35° C.
[2] = test system: Enterococcus sp.; conditions: broth dilution, 18 hours at 35° C.
Procedure, shortened: (§1)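 Step 1: dilute antibiotic across 64-0.06 μg/mL in Muller-Hinton II […]. Step 2: inoculate at 5×10^5 CFU/mL.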

[3] = test system: Streptococcus sp.; conditions: broth dilution, 18 hours at 35° C.
Procedure, shortened: as §1

[4] = test system: Staphylococcus sp.; conditions: broth dilution, 18 hours at 35° C.; for MIC Staphylococcus aureus (ATCC 29213): strain ATCC 29213; for MIC Staphylococcus aureus (GC 1131): strain GC 1131; for MIC Staphylococcus aureus (GC 4541): strain GC 4541; for MIC Staphylococcus aureus (GC 4542): strain GC 4542; for MIC Staphylococcus aureus (GC 4544): strain GC 4544; for MIC Staphylococcus aureus (GC 4545): strain GC 4545
Procedure, shortened: as §1

## CC(c1ccccc1)C1NC(=O)CNC(=O)C(CO)NC(=O)C(C(O)C2CN(c3ncccn3)C(=N)N2C2OC(CO)C(O)C(O)C2O)NC(=O)C(C(O)C2CNC(=Nc3ncccn3)N2)NC(=O)C(Cc2ccc(OC3OC(CO)C(OC4OC5COC6(OC5C(O)C4O)C4CC5CC(C4)CC6C5)C(O)C3O)cc2)NC1=O (stereo not drawn) [Example 228]
[1]
  MIC Escherichia coli (ATCC 25922): >64 µg/mL
  MIC Escherichia coli (GC 4559): >64 µg/mL
  MIC Escherichia coli (GC 4560): 16 µg/mL (≈ 10.1 µM)
[2]
  MIC Enterococcus avium (GC 4558): 8 µg/mL (≈ 5.05 µM)
  MIC Enterococcus faecalis (ATCC 29212): 32 µg/mL (≈ 20.2 µM)
  MIC Enterococcus faecalis (GC 2242): 32 µg/mL (≈ 20.2 µM)
  MIC Enterococcus faecalis (GC 2691): 32 µg/mL (≈ 20.2 µM)
  MIC Enterococcus faecalis (GC 3059): 32 µg/mL (≈ 20.2 µM)
  MIC Enterococcus faecalis (GC 4552): 32 µg/mL (≈ 20.2 µM)
  MIC Enterococcus faecalis (GC 4553): 16 µg/mL (≈ 10.1 µM)
  MIC Enterococcus faecalis (GC 4554): 32 µg/mL (≈ 20.2 µM)
  MIC Enterococcus faecalis (GC 6189): 32 µg/mL (≈ 20.2 µM)
  MIC Enterococcus faecium (GC 2243): 16 µg/mL (≈ 10.1 µM)
  MIC Enterococcus faecium (GC 4556): 32 µg/mL (≈ 20.2 µM)
  MIC Enterococcus faecium (GC 4557): 16 µg/mL (≈ 10.1 µM)
[2]; inoculum 5×10^5 CFU/mL, strain ATCC 29212
  MIC Enterococcus faecalis (ATCC 29212): 32 µg/mL (≈ 20.2 µM)
[2]; inoculum 5×10^5 CFU/mL, strain GC 2242
  MIC Enterococcus faecalis (GC 2242): 32 µg/mL (≈ 20.2 µM)
[2]; inoculum 5×10^5 CFU/mL, strain GC 2243
  MIC Enterococcus faecium (GC 2243): 16 µg/mL (≈ 10.1 µM)
[2]; inoculum 5×10^5 CFU/mL, strain GC 2691
  MIC Enterococcus faecalis (GC 2691): 32 µg/mL (≈ 20.2 µM)
[2]; inoculum 5×10^5 CFU/mL, strain GC 3059
  MIC Enterococcus faecalis (GC 3059): 32 µg/mL (≈ 20.2 µM)
[2]; inoculum 5×10^5 CFU/mL, strain GC 4552
  MIC Enterococcus faecalis (GC 4552): 32 µg/mL (≈ 20.2 µM)
[2]; inoculum 5×10^5 CFU/mL, strain GC 4553
  MIC Enterococcus faecalis (GC 4553): 16 µg/mL (≈ 10.1 µM)
[2]; inoculum 5×10^5 CFU/mL, strain GC 4554
  MIC Enterococcus faecalis (GC 4554): 32 µg/mL (≈ 20.2 µM)
[2]; inoculum 5×10^5 CFU/mL, strain GC 4556
  MIC Enterococcus faecium (GC 4556): 32 µg/mL (≈ 20.2 µM)
[2]; inoculum 5×10^5 CFU/mL, strain GC 4557
  MIC Enterococcus faecium (GC 4557): 16 µg/mL (≈ 10.1 µM)
[2]; inoculum 5×10^5 CFU/mL, strain GC 4558
  MIC Enterococcus avium (GC 4558): 8 µg/mL (≈ 5.05 µM)
[2]; inoculum 5×10^5 CFU/mL, strain GC 6189
  MIC Enterococcus faecalis (GC 6189): 32 µg/mL (≈ 20.2 µM)
[3]
  MIC Streptococcus agalactiae (GC 4564): 16 µg/mL (≈ 10.1 µM)
  MIC Streptococcus pneumoniae (ATCC 6301): 8 µg/mL (≈ 5.05 µM)
  MIC Streptococcus pneumoniae (GC 1894): 8 µg/mL (≈ 5.05 µM)
  MIC Streptococcus pneumoniae (GC 4565): 8 µg/mL (≈ 5.05 µM)
  MIC Streptococcus pyogenes (GC 4563): 8 µg/mL (≈ 5.05 µM)
[3]; inoculum 5×10^5 CFU/mL, strain ATCC 6301
  MIC Streptococcus pneumoniae (ATCC 6301): 8 µg/mL (≈ 5.05 µM)
[3]; inoculum 5×10^5 CFU/mL, strain GC 1894
  MIC Streptococcus pneumoniae (GC 1894): 8 µg/mL (≈ 5.05 µM)
[3]; inoculum 5×10^5 CFU/mL, strain GC 4563
  MIC Streptococcus pyogenes (GC 4563): 8 µg/mL (≈ 5.05 µM)
[3]; inoculum 5×10^5 CFU/mL, strain GC 4564
  MIC Streptococcus agalactiae (GC 4564): 16 µg/mL (≈ 10.1 µM)
[3]; inoculum 5×10^5 CFU/mL, strain GC 4565
  MIC Streptococcus pneumoniae (GC 4565): 8 µg/mL (≈ 5.05 µM)
[4]
  MIC Coagulase Negative Staphylococcus (GC 4547): 16 µg/mL (≈ 10.1 µM)
  MIC Coagulase Negative Staphylococcus (GC 4548): 16 µg/mL (≈ 10.1 µM)
  MIC Coagulase Negative Staphylococcus (GC 4549): 16 µg/mL (≈ 10.1 µM)
  MIC Coagulase Negative Staphylococcus (GC 4551): 16 µg/mL (≈ 10.1 µM)
  MIC Staphylococcus aureus-SMITH (GC 4543): 32 µg/mL (≈ 20.2 µM)
  MIC Staphylococcus haemolyticus (GC 4546): 16 µg/mL (≈ 10.1 µM)
  MIC Staphylococcus aureus (ATCC 29213): 32 µg/mL (≈ 20.2 µM)
  MIC Staphylococcus aureus (GC 1131): 32 µg/mL (≈ 20.2 µM)
  MIC Staphylococcus aureus (GC 4541): 32 µg/mL (≈ 20.2 µM)
  MIC Staphylococcus aureus (GC 4542): 32 µg/mL (≈ 20.2 µM)
  MIC Staphylococcus aureus (GC 4544): 32 µg/mL (≈ 20.2 µM)
  MIC Staphylococcus aureus (GC 4545): 32 µg/mL (≈ 20.2 µM)
[4]; strain GC 4543
  MIC Staphylococcus aureus-SMITH (GC 4543): 32 µg/mL (≈ 20.2 µM)
[4]; strain GC 4546
  MIC Staphylococcus haemolyticus (GC 4546): 16 µg/mL (≈ 10.1 µM)
[4]; strain GC 4547
  MIC Coagulase Negative Staphylococcus (GC 4547): 16 µg/mL (≈ 10.1 µM)
[4]; strain GC 4548
  MIC Coagulase Negative Staphylococcus (GC 4548): 16 µg/mL (≈ 10.1 µM)
[4]; strain GC 4549
  MIC Coagulase Negative Staphylococcus (GC 4549): 16 µg/mL (≈ 10.1 µM)
[4]; strain GC 4551
  MIC Coagulase Negative Staphylococcus (GC 4551): 16 µg/mL (≈ 10.1 µM)
[4]; strain GC 3051
  MIC Staphylococcus aureus (GC 3051): 32 µg/mL (≈ 20.2 µM)
[4]; strain GC 3053
  MIC Staphylococcus aureus (GC 3053): 32 µg/mL (≈ 20.2 µM)

## CCCC(CCC)C(=O)OCC1OC(Oc2ccc(CC3NC(=O)C(C(C)c4ccccc4)NC(=O)CNC(=O)C(CO)NC(=O)C(C(O)C4CNC(=N)N4C4OC(CO)C(O)C(O)C4O)NC(=O)C(C(O)C4CNC(=N)N4)NC3=O)cc2)C(O)C(O)C1OC1OC(CO)C(O)C(O)C1O (stereo not drawn) [Example 99b, Cyclo[glycyl-β-methylphenylalanyl-O-[4-O-hexopyranosyl-6-O-(2-propylpentanoyl)hexopyranosyl]tyrosyl-3-(2-iminoimidazolidin-4-yl)seryl-3-(3-hexopyranosyl-2-iminoimidazolidin-4-yl)serylseryl]]
[1]
  MIC Escherichia coli (ATCC 25922): >64 µg/mL
[2]; Enterococcus avium (GC 4558)
  MIC Enterococcus avium (GC 4558): 16 µg/mL (≈ 11.3 µM)
[2]; Enterococcus faecalis (ATCC 29212)
  MIC Enterococcus faecalis (ATCC 29212): 16 µg/mL (≈ 11.3 µM)
[2]; Enterococcus faecalis (GC 2242)
  MIC Enterococcus faecalis (GC 2242): 16 µg/mL (≈ 11.3 µM)
[2]; Enterococcus faecalis (GC 4552)
  MIC Enterococcus faecalis (GC 4552): 32 µg/mL (≈ 22.5 µM)
[2]; Enterococcus faecalis (GC 4553)
  MIC Enterococcus faecalis (GC 4553): 16 µg/mL (≈ 11.3 µM)
[2]; Enterococcus faecalis (GC 4554)
  MIC Enterococcus faecalis (GC 4554): 32 µg/mL (≈ 22.5 µM)
[2]; Enterococcus faecium (GC 2243)
  MIC Enterococcus faecium (GC 2243): 16 µg/mL (≈ 11.3 µM)
[2]; Enterococcus faecium (GC 4556)
  MIC Enterococcus faecium (GC 4556): 16 µg/mL (≈ 11.3 µM)
[2]; Enterococcus faecium (GC 4557)
  MIC Enterococcus faecium (GC 4557): 4 µg/mL (≈ 2.81 µM)
[2]
  MIC Enterococcus avium (GC 4558): 16 µg/mL (≈ 11.3 µM)
  MIC Enterococcus faecalis (ATCC 29212): 16 µg/mL (≈ 11.3 µM)
  MIC Enterococcus faecalis (GC 2242): 16 µg/mL (≈ 11.3 µM)
  MIC Enterococcus faecalis (GC 4552): 32 µg/mL (≈ 22.5 µM)
  MIC Enterococcus faecalis (GC 4553): 16 µg/mL (≈ 11.3 µM)
  MIC Enterococcus faecalis (GC 4554): 32 µg/mL (≈ 22.5 µM)
  MIC Enterococcus faecium (GC 2243): 16 µg/mL (≈ 11.3 µM)
  MIC Enterococcus faecium (GC 4556): 16 µg/mL (≈ 11.3 µM)
  MIC Enterococcus faecium (GC 4557): 4 µg/mL (≈ 2.81 µM)
[3]; Streptococcus agalactiae (GC 4564)
  MIC Streptococcus agalactiae (GC 4564): 2 µg/mL (≈ 1.41 µM)
[3]; Streptococcus pneumoniae (GC 4565)
  MIC Streptococcus pneumoniae (GC 4565): <0.5 µg/mL
[3]; Streptococcus pyogenes (ID-3187)
  MIC Streptococcus pyogenes (ID-3187): 1 µg/mL (≈ 0.703 µM)
[3]
  MIC Streptococcus agalactiae (GC 4564): 2 µg/mL (≈ 1.41 µM)
  MIC Streptococcus pneumoniae (GC 4565): <0.5 µg/mL
  MIC Streptococcus pyogenes (ID-3187): 1 µg/mL (≈ 0.703 µM)
[4]
  MIC Coagulase Negative Staphylococcus (GC 4547): 4 µg/mL (≈ 2.81 µM)
  MIC Coagulase Negative Staphylococcus (GC 4548): 4 µg/mL (≈ 2.81 µM)
  MIC Coagulase Negative Staphylococcus (GC 4549): 2 µg/mL (≈ 1.41 µM)
  MIC Coagulase Negative Staphylococcus (GC 4551): 8 µg/mL (≈ 5.63 µM)
  MIC Coagulase Negative Staphylococcus (ID-3941): 2 µg/mL (≈ 1.41 µM)
  MIC Staphylococcus aureus-SMITH (GC 4543): 4 µg/mL (≈ 2.81 µM)
  MIC Staphylococcus haemolyticus (GC 4546): 4 µg/mL (≈ 2.81 µM)
  MIC Staphylococcus aureus (ATCC 29213): 4 µg/mL (≈ 2.81 µM)
  MIC Staphylococcus aureus (GC 1131): 4 µg/mL (≈ 2.81 µM)
  MIC Staphylococcus aureus (GC 4541): 4 µg/mL (≈ 2.81 µM)
  MIC Staphylococcus aureus (GC 4542): 4 µg/mL (≈ 2.81 µM)
  MIC Staphylococcus aureus (GC 4544): 4 µg/mL (≈ 2.81 µM)
  MIC Staphylococcus aureus (GC 4545): 4 µg/mL (≈ 2.81 µM)
[4]; strain GC 4546
  MIC Staphylococcus haemolyticus (GC 4546): 4 µg/mL (≈ 2.81 µM)
[4]; strain GC 4547
  MIC Coagulase Negative Staphylococcus (GC 4547): 4 µg/mL (≈ 2.81 µM)
[4]; strain GC 4548
  MIC Coagulase Negative Staphylococcus (GC 4548): 4 µg/mL (≈ 2.81 µM)
[4]; strain GC 4549
  MIC Coagulase Negative Staphylococcus (GC 4549): 2 µg/mL (≈ 1.41 µM)
[4]; strain GC 4551
  MIC Coagulase Negative Staphylococcus (GC 4551): 8 µg/mL (≈ 5.63 µM)
[4]; strain ID-3941
  MIC Coagulase Negative Staphylococcus (ID-3941): 2 µg/mL (≈ 1.41 µM)
[4]; strain SMITH GC 4543
  MIC Staphylococcus aureus-SMITH (GC 4543): 4 µg/mL (≈ 2.81 µM)
